According to the supplement of paper PMC5412046:

What was measured:
[1] = tested on: SB.msgc-1; experiment: AC50 for growth inhibition (viability) (log10 M); higher = less potent; conditions: SB.msgc-1 (sporadic gastric cancer)
How it was run: (§1)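 Dosing used a pintool to add 23 nL compound in DMSO to 1536 wells, each with 500 hereditary or sporadic patient-derived gastric cancer cells, across 11 threefold dilutions starting at a final 46 μM. Viability after 48 h was measured by CellTiter-Glo luminescence on a ViewLux. The log half-maximal activity concentration derives from a four-parameter fit of that viability normalised to DMSO, limited to high-quality curve classes.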

[2] = tested on: SB.mhdgc-1; experiment: as above; conditions: SB.mhdgc-1 (hereditary c.1380delA CDH1 gastric cancer)
How it was run: as §1

| SMILES | AC50 for growth inhibition (log10 M) [1] | AC50 for growth inhibition (log10 M) [2] |
| --- | --- | --- |
| c1ccc(CNc2nc(NCc3ccccc3)c3ccccc3n2)cc1 | -5.03 | -5.03 |
| CC(=O)NCC(=O)N1[C@@H]2CC[C@H]1c1ccc(Nc3ncc(C(F)(F)F)c(NC4CCC4)n3)cc12 | -5.33 | -5.48 |
| CC(C)(C)Cn1c(N)nc2ccc(-c3[nH]c(C(C)(C)C)nc3-c3ccc(F)cc3)nc21 | -4.73 | -4.53 |
| CC(C)c1cc(C(=O)N2Cc3ccc(CN4CCN(C)CC4)cc3C2)c(O)cc1O | -6.78 | -6.53 |
| CC(C)Oc1ccc(C(=O)N[C@H](CNC(=O)CN(C)C)Cc2ccc(-c3cn4cccc([C@H](C)O)c4n3)cc2)cc1Cl | -6.63 | -5.18 |
| C=CC(=O)Nc1cccc(Nc2nc(NC3CCC(N(C)C)CC3)nc3c2ncn3C(C)C)c1 (stereo unspecified) | -7.43 | -7.88 |
| CC(O)(C#Cc1ccc2c(c1)N(c1nc(N)ncc1Cl)CC2)c1nccs1 (stereo unspecified) | -4.88 | -4.73 |
| Cc1c(C(=O)c2cccc3ccccc23)c2cccc3c2n1[C@H](CN1CCOCC1)CO3 | -5.08 | -4.93 |
| Cc1ccc(CN2CCNCC2)cc1NC(=O)CNc1ccc(F)c(F)c1 | -5.38 | -5.93 |
| Cc1ccc2nc(NCCN)c3ncc(C)n3c2c1 | -5.18 | -6.18 |
| Cc1cccc(-c2[nH]c(C(C)(C)C)nc2-c2ccc3c(c2)OCO3)n1 | -4.88 | -4.83 |
| Cc1c(Cn2c(C)nc3c(C(=O)O)cc(N4CCOCC4)cc32)cccc1C(F)(F)F | -5.88 | -7.48 |
| Cc1n[nH]c2ccc(-c3cncc(OC[C@@H](N)Cc4c[nH]c5ccccc45)c3)cc12 | -6.08 | -6.03 |
| CCc1cc(-c2n[nH]c(C)c2-c2ccc3c(c2)OCCO3)c(O)cc1O | -5.68 | -5.53 |
| CCCCOc1c(C(=O)c2c(F)cc(C)cc2F)cnc2[nH]ncc12 | -5.63 | -5.63 |
| CCN(CC)CCCCNc1ncc2c(n1)N(C)C(=O)N(c1c(Cl)c(OC)cc(OC)c1Cl)C2 | -4.63 | -4.78 |
| CCNC(=O)Nc1ccc2ncc(Nc3ccc(C)cc3)nc2n1 | -6.43 | -7.43 |
| CCOC(=O)N1CCN(/[N+]([O-])=N/Oc2ccc([N+](=O)[O-])cc2[N+](=O)[O-])CC1 | -4.88 | -5.23 |
| CCn1cc(-c2ccnc3[nH]c(-c4cccc(CN(C)C)c4)cc23)c(-c2ccc(NC(=O)N(C)C)cc2)n1 | -4.73 | -5.38 |
| CN(C)C(=O)[C@H](O)[C@H](Cc1ccccc1)NC(=O)c1cc2cc(Cl)ccc2[nH]1 | -5.13 | -5.23 |
| Cc1ccc(NC(=O)c2cccc(N(C)C)c2)cc1NC(=O)c1ccc(O)cc1 | -5.78 | -6.48 |
| CN(C)CC(=O)N1CCC(CC1)C2=CC=C(NC(=O)C3=NC(=C[NH]3)C#N)C(=C2)\C4=C\CCCC4 | -5.23 | -6.28 |
| CN(C)Cc1cccc(N/C(=C2\C(=O)Nc3cc(C(=O)N(C)C)ccc32)c2ccccc2)c1 | -5.23 | -5.48 |
| Cc1nc(Nc2n[nH]c3c2CN(C(=O)N[C@H](CN(C)C)c2ccccc2)C3(C)C)c2sccc2n1 | -6.53 | -5.98 |
| CN1CCC(CC1)COC2=CN=C(N=C2)C3=CC(=CC=C3)CN4/N=C(\C=C/C4=O)C5=CC(=CC=C5)C#N | -6.78 | -7.48 |
| Cc1cc(CN2CCN(c3c(Br)cnc4[nH]c(-c5ccc(N6CCN(C)CC6)cc5)nc34)CC2)no1 | -4.68 | -4.63 |
| CNC(=O)c1ccc(Nc2cc(Nc3ccccc3[S+](=O)([O-])C(C)C)c3cc[nH]c3n2)nc1 | -4.68 | -4.78 |
| COc1cc(N2CCC(C(N)=O)CC2)ccc1Nc1nc(N)c(Cl)c(Nc2ccccc2[S+](=O)([O-])C(C)C)n1 | -5.58 | -6.03 |
